Measured values published in ChEMBL document CHEMBL5727116, “Pyrazole compounds and methods of making and using same” (2019).

Legend:
[1] = molecular target: T1, Fatty-acid amide hydrolase 1 (Mus musculus, UniProt O08914); assay: (§1) In Vitro Competitive Activity-Based Protein Profiling: Proteomes (mouse brain membrane fraction or cell lysates for mouse assays; human prefrontal cortex or cell membrane fractions for human assays) (50 μL, 1.0 mg/mL total protein concentration) were preincubated with varying concentrations of inhibitors at 37° C. After 30 min, FP—Rh or HT-01 (1.0 μL, 50 μM in DMSO) was added and the mixture was incubated for another 30 min at 37° C. Reactions were quenched with SDS loading buffer (15 μL-4×) and run on SDS-PAGE. Following gel imaging, serine hydrolase activity was determined by measuring fluorescent intensity of gel bands corresponding to MAGL and FAAH using ImageJ 1.43u software.Preparation of Mouse Brain Proteomes from Inhibitor Treated Mice.Inhibitors were administered to wild-type C57Bl/6J by oral gavage in a vehicle of polyethylene glycol. Each animal was sacrificed 4 h following administration and brain proteomes were prepared and analyzed according to previously established methods (See Niphakis, M. J., et al. (2011) ACS Chem. Neurosci. and Long, J. Z., et al. Nat. Chem. Biol. 5:37-44).
T1 sequence (O08914 whole entry): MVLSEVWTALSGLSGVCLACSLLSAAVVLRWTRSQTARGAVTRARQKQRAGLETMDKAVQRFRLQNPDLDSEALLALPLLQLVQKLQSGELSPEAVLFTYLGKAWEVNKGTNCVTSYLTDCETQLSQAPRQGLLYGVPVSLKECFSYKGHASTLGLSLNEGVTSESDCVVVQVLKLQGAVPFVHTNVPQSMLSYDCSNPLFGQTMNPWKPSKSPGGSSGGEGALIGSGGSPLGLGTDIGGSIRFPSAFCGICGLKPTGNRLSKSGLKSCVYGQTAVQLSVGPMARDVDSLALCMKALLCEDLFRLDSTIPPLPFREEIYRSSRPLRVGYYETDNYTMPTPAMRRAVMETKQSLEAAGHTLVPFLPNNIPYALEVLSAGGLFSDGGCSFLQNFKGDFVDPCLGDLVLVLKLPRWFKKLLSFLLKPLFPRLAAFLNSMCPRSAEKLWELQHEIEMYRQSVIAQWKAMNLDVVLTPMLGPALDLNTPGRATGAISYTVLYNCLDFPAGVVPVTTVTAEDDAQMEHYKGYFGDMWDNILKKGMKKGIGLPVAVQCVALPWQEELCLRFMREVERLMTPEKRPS

Monoglyceride lipase = molecular target: T2, Monoglyceride lipase (Mus musculus, UniProt O35678); assay: as §1
T2 sequence (O35678 whole entry): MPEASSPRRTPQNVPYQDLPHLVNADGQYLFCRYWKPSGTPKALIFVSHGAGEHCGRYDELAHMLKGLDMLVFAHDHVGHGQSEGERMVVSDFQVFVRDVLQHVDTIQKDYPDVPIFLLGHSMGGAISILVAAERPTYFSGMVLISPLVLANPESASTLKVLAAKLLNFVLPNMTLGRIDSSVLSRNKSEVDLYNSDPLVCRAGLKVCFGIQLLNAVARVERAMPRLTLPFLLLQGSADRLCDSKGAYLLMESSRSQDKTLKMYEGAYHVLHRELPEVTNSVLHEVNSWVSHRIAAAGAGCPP

| IC50 [1] [nM] | IC50 (Monoglyceride lipase) [nM] | Compound |
| --- | --- | --- |
| < 100 |  | CC(=O)N(C)c1cnn(C(=O)N2CC3CN(Cc4cccc(Oc5ccccn5)c4)CC3C2)c1 (stereo not given) |
|  | < 100 | CC(=O)N(C)c1cnn(C(=O)N2CCN(Cc3ccc(Cl)c(Cl)c3)CC2)c1 |
| < 100 | < 100 | CC(=O)N(C)c1cnn(C(=O)N2CC3CN(Cc4cc(Cl)cc(N5CCC6(CCOCC6)C5)c4)CC3C2)c1 (stereo not given) |
|  | < 100 | CC(=O)N(C)c1cnn(C(=O)N2CCN(Cc3ccc(C(F)(F)F)cc3)CC2)c1 |
